Measured values published in US7381540B2, “Composition for measuring glucose having improved substrate specificity” (Toyo Boseki Kabushiki Kaisha, priority 2005, dated 2008).

Experiments:
modified PQQGDH [1] = test: Substrate specificity using glucose assay system (ferricyanide reduction, absorbance 420 nm); format: biochemical
Method: D-glucose+ferricyanide ion+PQQGDH D-glucono-1,5-lactone+ferrocyanide ion
Specificity to each substrate can be determined by changing D-glucose to other saccharides. The presence of the ferrocyanide ion produced by reduction of the ferricyanide ion was confirmed by measuring the decrease of absorbance at a wavelength of 420 nm by spectrophotometry.
A. […]
B. Potassium ferricyanide solution: 50 mM (0.165 g potassium ferricyanide (molecular weight: 329.25) dissolved in 10 ml of distilled water)
C. PQQGDH solution: 31000 U/ml (approx. 128 mg PQQGDH (Toyobo: GLD-331) dissolved in 5 ml of distilled water)
D. Substrate solution (D-glucose solution or maltose solution): 100 or 400 mM
• 1. The following reaction mixture was prepared in a light shielding bottle, and stored on ice (prepared at use). 48.2 mL of each buffer solution (pH6.5) (A) • 4.0 mL of potassium ferricyanide solution (B) • 0.19 mL of (C) • 2. 2.65 ml of the reaction mixture and 0.3 ml of additive were placed in a test tube (plastic) and pre-warmed for 5 minutes at 37° C. • 3. 0.15 ml of substrate solution (D) were added and mixed gently. • 4. The reduction in the absorbance relative to water at 420 nm was recorded for 1 to 3 minutes with a spectrophotometer while maintaining at a temperature of 37° C., and the ΔOD per minute was calculated from the initial linear portion of the curve (ΔOD test). At the same time, the same procedure was carried out with the exception of adding distilled water instead of glucose solution followed by measurement of the blank (ΔOD blank).
The above-mentioned procedure was carried out at each of the predetermined concentrations shown in Tables 1 to 3 using as additives succinic acid, adipic acid, suberic acid, pimeric acid, potassium chloride, ammonium chloride, diammonium hydrogen citrate, malonic acid, L-lysine, taurine, 3,3-dimethylglutaric acid, malic acid, glutaric acid, calcium glycerate, amino-n-butyric acid, sodium glycolate, sodium α-ketoglutarate, fumaric acid, glycerin, glutamic acid and serine. And the procedure was also carried out for those not containing additives to assess the effects of additives.
Variation in absorbance per unit time was determined by calculating ΔOD/min(ΔOD test−ΔOD blank)
To evaluate whether activity had declined with respect to sugars other than glucose, the ΔOD/min (a) with D-glucose as the substrate solution and the ΔOD/min (b) with the other sugar in place of D-glucose as the substrate solution were measured, and the relative value ((b)/(a)×100) was calculated given 100 as the measurement value with glucose as the substrate.
In each of Tables 3 to 5, in the case the value of the ratio of measured values of maltose and glucose (maltose/glucose) relative to the control (control: no addition) is small, activity with respect to maltose during glucose measurement decreases.

modified PQQGDH [2] = test: Maltose activity of glucose electrode loaded with modified PQQGDH (oxidation current, potassium ferricyanide mediator); format: biochemical, Acinetobacter baumannii strain NCIMB11517; details: for Maltose Activity (%): solute 50 mM, pH 5.5, glucose or maltose 4 mM, 0.1 M potassium ferricyanide, +0.35 V, 25° C.; for Maltose Activity of Glucose Electrode: 50 mM solvent, 1 mM calcium chloride, 0.1% Triton X-100
Method: 0.5 g of carbon graphite were placed in a mortar followed by the addition of 0.3 ml of liquid paraffin and kneading with a pestle for 30 minutes to produce a carbon paste. The resulting carbon paste was spread onto a platinum electrode followed by the addition of 10 μl of the modified PQQGDH solution (2,000 U/ml) produced in Example 2 and air drying for 30 minutes at room temperature. A cut cellulose semi-permeable membrane (molecular weight: 8,000) was placed over the dried enzyme electrode and the semi-permeable membrane was immobilized with plastic O-rings. The glucose electrode produced in this manner was then used after preliminarily immersing in the cold reaction solvent for 30 minutes.
The substances listed in Table 1 were used as solutes, and buffers were respectively prepared having a final concentration of 50 mM (pH 5.5). Each of the solvents contained an activator/stabilizer in the form of calcium chloride at 1 mM and surfactant in the form of 0.1% Triton X-100 in addition to the solute listed in Table 1. Potassium ferricyanide was dissolved in each of the produced solvents to a concentration of 0.1 M to prepare reaction solutions.
50 mM phosphoric acid or pimeric acid solution containing 1 mM calcium chloride and 0.1% Triton X-100 (consisting of three types having pH values of 5.0, 6.0 and 7.0, respectively) were prepared. Maltose activity of the glucose electrode was investigated for each according to the method of Example 5.

modified PQQGDH [3] = test: Substrate specificity using glucose assay system (ferricyanide reduction, absorbance 420 nm); format: biochemical; details: potassium phosphate buffer pH 7.0
[4] = phthalic acid buffer pH 7.0, reagent 0.5%, substrate 4.8 mM, control 0.72
[5] = phthalic acid buffer pH 7.0, reagent 0.5%, substrate 19.2 mM, control 0.75
[6] = phthalic acid buffer pH 7.0, reagent 1%, substrate 4.8 mM, control 0.72
[7] = phthalic acid buffer pH 7.0, reagent 1%, substrate 19.2 mM, control 0.75
[8] = phthalic acid buffer pH 7.0, reagent 2%, substrate 4.8 mM, control 0.72
[9] = phthalic acid buffer pH 7.0, reagent 2%, substrate 19.2 mM, control 0.75
[10] = glutaric acid buffer pH 7.0, reagent 0.1%, substrate 4.8 mM, control 0.86
[11] = glutaric acid buffer pH 7.0, reagent 0.1%, substrate 19.2 mM, control 0.94
[12] = glutaric acid buffer pH 7.0, reagent 1%, substrate 4.8 mM, control 0.86
[13] = glutaric acid buffer pH 7.0, reagent 1%, substrate 19.2 mM, control 0.94
[14] = potassium phosphate buffer pH 7.0, reagent 0.5%, substrate 19.2 mM, control 0.93
[15] = potassium phosphate buffer pH 7.0, reagent 1%, substrate 19.2 mM, control 0.93
[16] = reagent 0.5%, substrate 4.8 mM, control 0.85
[17] = reagent 1%, substrate 4.8 mM, control 0.85
[18] = reagent 2%, substrate 4.8 mM, control 0.85
[19] = reagent 2%, substrate 19.2 mM, control 0.93

## [Cl-].[K+] [Potassium chloride]
Modified PQQGDH [1]; [4]
  Maltose/glucose ratio: 0.66
Modified PQQGDH [1]; [5]
  Maltose/glucose ratio: 0.71
Modified PQQGDH [1]; [6]
  Maltose/glucose ratio: 0.67
Modified PQQGDH [1]; [7]
  Maltose/glucose ratio: 0.64
Modified PQQGDH [1]; [8]
  Maltose/glucose ratio: 0.60
Modified PQQGDH [1]; [9]
  Maltose/glucose ratio: 0.60

## O=C(O)CCCC(=O)O [Glutaric acid]
Modified PQQGDH [2]
  Maltose Activity (%): 22.1%
Modified PQQGDH [1]; [10]
  Maltose/glucose ratio: 0.65
Modified PQQGDH [1]; [11]
  Maltose/glucose ratio: 0.81
Modified PQQGDH [1]; [12]
  Maltose/glucose ratio: 0.34
Modified PQQGDH [1]; [13]
  Maltose/glucose ratio: 0.54

## O=C(O)c1ccccc1C(=O)O [Phthalic acid]
Modified PQQGDH [2]
  Maltose Activity (%): 4.9%

## O=C([O-])CO.[Na+] [sodium glycolate]
Modified PQQGDH [1]; [12]
  Maltose/glucose ratio: 0.77
Modified PQQGDH [1]; [13]
  Maltose/glucose ratio: 0.92

## N[C@H](CCC(=O)O)C(=O)O [D-glutamic acid]
Modified PQQGDH [1]; [10]
  Maltose/glucose ratio: 0.73
Modified PQQGDH [1]; [11]
  Maltose/glucose ratio: 0.89

## Cl.NCCCC[C@H](N)C(=O)O [L-lysine hydrochloride]
Modified PQQGDH [1]; [12]
  Maltose/glucose ratio: 0.65
Modified PQQGDH [1]; [13]
  Maltose/glucose ratio: 0.87
Modified PQQGDH [1]; [4]
  Maltose/glucose ratio: 0.62
Modified PQQGDH [1]; [5]
  Maltose/glucose ratio: 0.64
Modified PQQGDH [1]; [6]
  Maltose/glucose ratio: 0.61
Modified PQQGDH [1]; [7]
  Maltose/glucose ratio: 0.58
Modified PQQGDH [1]; [8]
  Maltose/glucose ratio: 0.59
Modified PQQGDH [1]; [9]
  Maltose/glucose ratio: 0.50
Modified PQQGDH [1]; [14]
  Maltose/glucose ratio: 0.91
Modified PQQGDH [1]; [15]
  Maltose/glucose ratio: 0.93
Modified PQQGDH [3]; [16]
  Maltose/glucose ratio: 0.78
Modified PQQGDH [3]; [17]
  Maltose/glucose ratio: 0.71
Modified PQQGDH [3]; [18]
  Maltose/glucose ratio: 0.66
Modified PQQGDH [3]; [19]
  Maltose/glucose ratio: 0.85

## N[C@@H](CO)C(=O)O [L-serine]
Modified PQQGDH [1]; [12]
  Maltose/glucose ratio: 0.73
Modified PQQGDH [1]; [13]
  Maltose/glucose ratio: 0.87

## O=P(O)(O)O [Phosphoric acid, reference compound]
Modified PQQGDH [2]; pH 5.0
  Maltose Activity of Glucose Electrode: 23.7%
Modified PQQGDH [2]; pH 6.0
  Maltose Activity of Glucose Electrode: 36.8%
Modified PQQGDH [2]; pH 7.0
  Maltose Activity of Glucose Electrode: 50.8%
Modified PQQGDH [2]
  Maltose Activity (%): 28.0%

## O=C(O)CC(O)(CC(=O)O)C(=O)O [Citric acid]
Modified PQQGDH [2]
  Maltose Activity (%): 23.4%

## O=C(O)CC(O)C(=O)O (racemic) [D,L-malic acid]
Modified PQQGDH [2]
  Maltose Activity (%): 18.9%
Modified PQQGDH [1]; [10]
  Maltose/glucose ratio: 0.57
Modified PQQGDH [1]; [11]
  Maltose/glucose ratio: 0.77
Modified PQQGDH [1]; [12]
  Maltose/glucose ratio: 0.34
Modified PQQGDH [1]; [13]
  Maltose/glucose ratio: 0.40

## CC[C@H](N)C(=O)O [L-2-amino-n-butyric acid]
Modified PQQGDH [1]; [12]
  Maltose/glucose ratio: 0.76
Modified PQQGDH [1]; [13]
  Maltose/glucose ratio: 0.92

## O=C(O)CCC(=O)C(=O)O [2-ketoglutaric acid]
Modified PQQGDH [2]
  Maltose Activity (%): 19.3%

## CC(=O)O [Acetic acid, reference compound]
Modified PQQGDH [2]
  Maltose Activity (%): 35.5%

## O=C(O)/C=C/C(=O)O [Fumaric acid]
Modified PQQGDH [1]; [12]
  Maltose/glucose ratio: 0.68
Modified PQQGDH [1]; [13]
  Maltose/glucose ratio: 0.88

## N.N.O=C(O)CC(O)(CC(=O)O)C(=O)O [Diammonium hydrogen citrate]
Modified PQQGDH [1]; [10]
  Maltose/glucose ratio: 0.78
Modified PQQGDH [1]; [11]
  Maltose/glucose ratio: 0.90
Modified PQQGDH [1]; [12]
  Maltose/glucose ratio: 0.59
Modified PQQGDH [1]; [13]
  Maltose/glucose ratio: 0.82
Modified PQQGDH [1]; [4]
  Maltose/glucose ratio: 0.79
Modified PQQGDH [1]; [5]
  Maltose/glucose ratio: 0.55
Modified PQQGDH [1]; [6]
  Maltose/glucose ratio: 0.80
Modified PQQGDH [1]; [7]
  Maltose/glucose ratio: 0.70
Modified PQQGDH [1]; [8]
  Maltose/glucose ratio: 0.89
Modified PQQGDH [1]; [9]
  Maltose/glucose ratio: 0.63
Modified PQQGDH [1]; [14]
  Maltose/glucose ratio: 0.88
Modified PQQGDH [1]; [15]
  Maltose/glucose ratio: 0.76
Modified PQQGDH [1]; substrate concentration of 4.8 mM, in some cases
  activity with respect to maltose compared with the control (in words): did not decrease
Modified PQQGDH [3]; [16]
  Maltose/glucose ratio: 0.64
Modified PQQGDH [3]; [17]
  Maltose/glucose ratio: 0.52
Modified PQQGDH [3]; [18]
  Maltose/glucose ratio: 0.36
Modified PQQGDH [3]; [19]
  Maltose/glucose ratio: 0.54

## Cl.N [Ammonium chloride]
Modified PQQGDH [1]; [12]
  Maltose/glucose ratio: 0.56
Modified PQQGDH [1]; [13]
  Maltose/glucose ratio: 0.71
Modified PQQGDH [1]; [4]
  Maltose/glucose ratio: 0.60
Modified PQQGDH [1]; [5]
  Maltose/glucose ratio: 0.67
Modified PQQGDH [1]; [6]
  Maltose/glucose ratio: 0.57
Modified PQQGDH [1]; [7]
  Maltose/glucose ratio: 0.59
Modified PQQGDH [1]; [8]
  Maltose/glucose ratio: 0.52
Modified PQQGDH [1]; [9]
  Maltose/glucose ratio: 0.52
Modified PQQGDH [1]; [14]
  Maltose/glucose ratio: 0.91
Modified PQQGDH [1]; [15]
  Maltose/glucose ratio: 0.84
Modified PQQGDH [3]; [16]
  Maltose/glucose ratio: 0.72
Modified PQQGDH [3]; [17]
  Maltose/glucose ratio: 0.58
Modified PQQGDH [3]; [18]
  Maltose/glucose ratio: 0.43
Modified PQQGDH [3]; [19]
  Maltose/glucose ratio: 0.70

## NCCS(=O)(=O)O [Taurine]
Modified PQQGDH [1]; [12]
  Maltose/glucose ratio: 0.75
Modified PQQGDH [1]; [13]
  Maltose/glucose ratio: 0.81
Modified PQQGDH [1]; [4]
  Maltose/glucose ratio: 0.71
Modified PQQGDH [1]; [5]
  Maltose/glucose ratio: 0.72
Modified PQQGDH [1]; [6]
  Maltose/glucose ratio: 0.66
Modified PQQGDH [1]; [7]
  Maltose/glucose ratio: 0.68
Modified PQQGDH [1]; [8]
  Maltose/glucose ratio: 0.62
Modified PQQGDH [1]; [9]
  Maltose/glucose ratio: 0.68

## NCC(=O)O [Glycine]
Modified PQQGDH [1]; [12]
  Maltose/glucose ratio: 0.76
Modified PQQGDH [1]; [13]
  Maltose/glucose ratio: 0.93

## O=C([O-])C(O)CO.O=C([O-])C(O)CO.[Ca+2] (racemic) [Calcium DL-glycerate]
Modified PQQGDH [1]; glutaric acid buffer pH 7.0, reagent 0.33%, substrate 4.8 mM, control 0.86
  Maltose/glucose ratio: 0.60
Modified PQQGDH [1]; glutaric acid buffer pH 7.0, reagent 0.33%, substrate 19.2 mM, control 0.94
  Maltose/glucose ratio: 0.82

## O=S(=O)(O)CCN1CCOCC1 [MES, reference compound]
Modified PQQGDH [2]
  Maltose Activity (%): 29.6%
